The record followed here is PMC9837035 (Nature Communications, 2023).

Assay [1] deals with G9a and GLP in HUDEP-2 cells. Kind of assay: Western blotting of G9a and GLP levels in HUDEP-2 cells. The class given is cell-based, human. Here is the method:
Preparation of cell lysates and western blotting were performed as described previously. Protein from cells lysates in lysis buffer (50 mM Tris-HCl (pH 7.5), 150 mM NaCl, 5 mM EDTA, 0.1% NP-40, 1 mM dithiothreitol) were separated by sodium dodecyl sulfate–polyacrylamide gel electrophoresis (SDS-PAGE) and transferred to a polyvinylidene difluoride (PVDF) membrane (Millipore) by electroblotting. The membranes incubated with primary antibodies overnight at 4 °C and secondary antibodies for 1 h at room temperature. The immune complexes were detected with the Immobilon Western Chemiluminescent HRP Substrate (Millipore). Luminescence was analyzed on a FUSION SOLO S (Vilber). Western blot bands were visualized using Evolution Capt software (M&S Instruments Inc.). Primary antibodies used were anti-G9a (1:1000, CST, #3306), anti–α-tubulin (1:5000, Abcam, ab18251), anti-H3K9me2 (1:3000, Abcam, ab1220), anti-H3 (1:5000, Abcam, ab1791), anti-H3K27me3 (1:3000, Sigma, 07-449), anti-GLP (1:1000, CST, #35005), anti-FLAG (100 ng/ml, Fujifilm, 01422383), anti-His (1:5000, MBL, PM032), anti-BCL11A (1:1000, abcam, ab19487), anti-ZBTB7A (1:1000, CST, #50565), anti-CHD3 (1:1000, Novus Biologicals, NB100-60412), and anti-CHD4 (1:1000, abcam, ab240640). Uncropped scans of all of the blots are available in Source Data file.

The target in assay [2] is T1, G9a (Homo sapiens, UniProt Q96KQ7).
T1 sequence (Q96KQ7 1-1210): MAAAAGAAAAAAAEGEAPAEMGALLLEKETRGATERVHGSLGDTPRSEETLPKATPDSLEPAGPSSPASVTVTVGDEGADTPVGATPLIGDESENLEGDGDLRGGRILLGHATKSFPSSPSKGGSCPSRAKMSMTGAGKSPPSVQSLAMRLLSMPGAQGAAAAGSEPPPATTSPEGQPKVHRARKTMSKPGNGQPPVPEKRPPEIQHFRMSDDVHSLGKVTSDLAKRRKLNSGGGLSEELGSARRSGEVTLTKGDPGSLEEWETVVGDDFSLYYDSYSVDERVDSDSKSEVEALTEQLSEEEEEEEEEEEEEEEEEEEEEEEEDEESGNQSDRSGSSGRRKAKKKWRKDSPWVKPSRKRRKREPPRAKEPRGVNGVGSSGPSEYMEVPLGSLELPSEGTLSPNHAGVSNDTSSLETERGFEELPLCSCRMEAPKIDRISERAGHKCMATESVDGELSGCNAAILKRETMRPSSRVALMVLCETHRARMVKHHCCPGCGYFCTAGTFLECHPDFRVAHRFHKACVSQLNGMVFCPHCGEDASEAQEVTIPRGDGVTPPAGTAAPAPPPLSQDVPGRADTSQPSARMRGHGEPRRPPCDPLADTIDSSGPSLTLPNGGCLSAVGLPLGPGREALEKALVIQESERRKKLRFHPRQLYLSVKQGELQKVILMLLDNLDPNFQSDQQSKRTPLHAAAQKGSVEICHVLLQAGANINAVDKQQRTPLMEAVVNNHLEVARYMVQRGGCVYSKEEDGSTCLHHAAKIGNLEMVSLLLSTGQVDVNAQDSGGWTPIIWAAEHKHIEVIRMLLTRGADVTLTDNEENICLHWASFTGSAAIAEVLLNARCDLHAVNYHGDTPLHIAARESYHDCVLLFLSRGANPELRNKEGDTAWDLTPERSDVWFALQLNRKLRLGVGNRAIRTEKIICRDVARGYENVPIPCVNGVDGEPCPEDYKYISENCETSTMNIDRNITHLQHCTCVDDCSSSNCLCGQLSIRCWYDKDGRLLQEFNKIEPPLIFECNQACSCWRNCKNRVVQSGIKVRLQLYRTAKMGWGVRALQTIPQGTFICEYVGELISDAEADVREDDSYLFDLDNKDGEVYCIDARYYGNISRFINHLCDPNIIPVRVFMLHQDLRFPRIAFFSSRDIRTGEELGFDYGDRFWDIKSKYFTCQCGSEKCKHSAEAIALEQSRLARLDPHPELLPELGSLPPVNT
Kind of assay: Kinetic analysis by ALPHA (IC50 vs H3 peptide or SAM). Format: biochemical. Also on record: purchased BPS Bioscience. To be noted: for IC50: 3 replicates. Here is the method:
Kinetic analysis was measured by ALPHA. […] ALPHA profile was analyzed using Origin (OriginLab).

For assay [3], the target named is T1, G9a. Put plainly: Radioisotope-based methyltransferase assay (selectivity). To be noted: 1 μM SAM.
Assay [4] concerns the target MLL4. The description is as above. To be noted: MLL4, 1 μM SAM.
The target of assay [5] is MLL4 (Homo sapiens, UniProt Q9UMN6). The assay is described as above. To be noted: MLL4, 1 μM SAM.
MLL4 (Homo sapiens, UniProt Q9UMN6), sequence (Q9UMN6 2490-2715): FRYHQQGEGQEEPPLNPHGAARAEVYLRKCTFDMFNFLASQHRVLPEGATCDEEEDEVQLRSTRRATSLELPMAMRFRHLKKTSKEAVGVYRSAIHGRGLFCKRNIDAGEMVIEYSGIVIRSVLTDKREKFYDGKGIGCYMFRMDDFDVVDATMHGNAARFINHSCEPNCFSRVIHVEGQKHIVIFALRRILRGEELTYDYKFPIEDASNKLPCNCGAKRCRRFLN
MLL4 (Homo sapiens, UniProt Q9UMN6), sequence (Q9UBL3 whole entry, further chain): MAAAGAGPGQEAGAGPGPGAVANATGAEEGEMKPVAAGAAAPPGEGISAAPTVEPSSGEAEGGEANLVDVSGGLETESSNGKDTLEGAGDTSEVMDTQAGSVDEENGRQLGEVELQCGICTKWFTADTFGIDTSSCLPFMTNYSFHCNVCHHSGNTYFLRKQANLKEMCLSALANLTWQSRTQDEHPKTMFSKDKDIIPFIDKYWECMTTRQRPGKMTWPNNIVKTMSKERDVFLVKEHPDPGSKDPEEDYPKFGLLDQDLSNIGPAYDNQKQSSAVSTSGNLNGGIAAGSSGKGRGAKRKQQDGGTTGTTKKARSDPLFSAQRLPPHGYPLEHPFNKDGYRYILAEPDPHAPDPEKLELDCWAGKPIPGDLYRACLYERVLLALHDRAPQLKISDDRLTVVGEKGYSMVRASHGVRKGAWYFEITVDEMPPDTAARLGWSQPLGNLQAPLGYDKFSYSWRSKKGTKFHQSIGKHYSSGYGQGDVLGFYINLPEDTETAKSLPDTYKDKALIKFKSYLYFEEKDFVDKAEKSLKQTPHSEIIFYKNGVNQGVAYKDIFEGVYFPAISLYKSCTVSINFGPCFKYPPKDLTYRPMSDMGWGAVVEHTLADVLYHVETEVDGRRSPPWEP
MLL4 (Homo sapiens, UniProt Q9UMN6), sequence (Q9C005 whole entry, further chain): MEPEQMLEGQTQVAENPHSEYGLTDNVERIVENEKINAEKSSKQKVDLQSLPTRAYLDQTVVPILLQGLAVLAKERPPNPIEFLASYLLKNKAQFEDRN
MLL4 (Homo sapiens, UniProt Q9UMN6), sequence (Q15291 whole entry, further chain): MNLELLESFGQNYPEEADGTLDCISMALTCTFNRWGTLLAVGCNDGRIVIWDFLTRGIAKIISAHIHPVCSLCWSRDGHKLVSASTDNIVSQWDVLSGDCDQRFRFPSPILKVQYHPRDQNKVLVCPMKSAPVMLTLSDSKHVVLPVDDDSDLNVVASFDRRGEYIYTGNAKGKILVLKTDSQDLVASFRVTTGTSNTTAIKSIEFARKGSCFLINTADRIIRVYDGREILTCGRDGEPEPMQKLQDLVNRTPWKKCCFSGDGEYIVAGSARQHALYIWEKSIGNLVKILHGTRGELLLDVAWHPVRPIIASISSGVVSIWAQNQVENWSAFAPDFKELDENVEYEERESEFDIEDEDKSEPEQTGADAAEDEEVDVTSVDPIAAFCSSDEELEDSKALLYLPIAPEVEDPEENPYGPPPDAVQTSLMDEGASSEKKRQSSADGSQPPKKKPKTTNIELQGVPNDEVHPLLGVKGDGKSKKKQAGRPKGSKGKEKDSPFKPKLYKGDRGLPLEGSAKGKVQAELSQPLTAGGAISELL

SMILES strings stand for the structures. Values joined by “and” are separate entries in the source; they are usually repeats but may differ in a detail not shown here. Identical values can stand only once. Some results are limits rather than exact numbers.

MLL4, sequence (Q9UMN6 2490-2715): as the sequence (Q9UMN6 2490-2715) above
MLL4, sequence (Q9UBL3 whole entry, further chain): as the sequence (Q9UBL3 whole entry, further chain) above
MLL4, sequence (Q9C005 whole entry, further chain): as the sequence (Q9C005 whole entry, further chain) above
MLL4, sequence (Q15291 whole entry, further chain): as the sequence (Q15291 whole entry, further chain) above

As a reminder, the IC50 is the concentration that gives 50% inhibition. Low readings indicate greater potency in that assay, high ones weaker potency in that assay. Turning to `Cc1c(C(=O)NC(CCC2CC2)C(=O)Nc2ccc(C#N)cc2)[nH]c2c1C(=O)CC(C)(C)C2` (centres unmarked) [RK-701], the “expression levels of G9a and GLP” value in assay [1] is reported as “did not affect”. Moreover, the “mode of inhibition, SAM” value at G9a [2] was “uncompetitive inhibition with respect to SAM”. Also, the “mode of inhibition, histone H3 peptide” value on G9a [2] is “histone H3 substrate-competitive inhibitor”. Also, the IC50 on G9a [2] (H3(1-21)-biotin 6.25 nM) was 9.85 nM and 9.46 nM and 8.82 nM; on G9a [2] (H3(1-21)-biotin 12.5 nM) it was 8.26 nM and 13.4 nM and 10.5 nM; against G9a [2] (H3(1-21)-biotin 25 nM) it was 11.7 nM and 18.2 nM and 17.3 nM; against G9a [2] (H3(1-21)-biotin 50 nM), 20.2 nM and 32.1 nM and 26.2 nM; against G9a [2] (H3(1-21)-biotin 100 nM), 34.8 nM and 34.6 nM and 31.4 nM; against G9a [2] (SAM 0.47 µM) it was 154 nM and 149 nM and 150 nM. The IC50 at G9a [2] (SAM 0.94 µM) is 65.3 nM and 98.6 nM and 43.1 nM; against G9a [2] (SAM 1.88 µM) it was 30.6 nM and 57.4 nM and 24.3 nM; on G9a [2] (SAM 3.75 µM), 23.5 nM and 39.6 nM and 21.1 nM; against G9a [2] (SAM 7.5 µM), 27.8 nM and 38.9 nM and 11.8 nM; against G9a [2] (SAM 15 µM), 25 nM and 37.5 nM and 12.8 nM; against G9a [3], 23 nM. The compound further returned an IC50 on MLL4 [4] greater than 100000 nM.

For `Nc1ncnc2c1ncn2[C@@H]1O[C@H](CSCC[C@H](N)C(=O)O)[C@@H](O)[C@H]1O` [SAH, S-(5'-Adenosyl)-L-homocysteine, reference compound], half-maximal inhibition against MLL4 [5] (IC50) required 1100 nM. This lies in the single-digit micromolar range.
